Legend:
human MEK1 = human MEK1 (Homo sapiens, UniProt Q02750, S218E/S222E); assay: MEK-1 Enzyme Assay (LANCE-HTRF); format: biochemical; conditions: MEK-1 EE, ERK-2K52A substrate, 9 uM ATP, 1.5 hrs
Description: Assay 1: MEK-1 Enzyme Assay (LANCE-HTRF)
Inhibition of human MEK1 kinase activity was monitored with a homogenous, fluorescence-based assay. The assay uses time resolved fluorescence resonance energy transfer to probe for phosphorylation of ERK1 by MEK1. The detailed procedure is described in the following:
Constititutively active MEK-1 EE (150 ng/well) and ERK-2K52A (110 ng/well) were incubated in black, 384 well Optiplates (Perkin Elmer) for 1.5 hrs at room temperature, in the presence of increasing concentrations of inhibitors. The total reaction volume was 50 ul. The inhibitors were serial diluted in kinase buffer (9 uM ATP, 50 mM Tris-Hcl pH 8.0, 10 mM MgCl2, 1 mM DTT and 100 uM Na3VO4), to a final concentration of 1% DMSO. At the end of the incubation, the enzyme reaction was quenched by adding 50 ul of assay buffer containing 50 mM Tris-Hcl, 50 mM EDTA, 0.1% BSA and a mixture of 1.25 ug/mL europium labeled anti-phosphotyrosine mAb (Perkin Elmer) and 5 ug/mL of allophycocyanin labeled anti-GST antibody (CIS-US). Plates were agitated on a plate shaker for 30 minutes and the phosphorylation of the ERK-2K52A substrate was measured by homogeneous time resolved fluorescence (HTRF) at 340 nm excitation and […] emission filters on the VICTOR V fluorescence plate reader. Phosphorylation is expressed as a ratio of 665 nM signal×10,000/615 nM signal. To assess the inhibitory potential of the compounds, IC50-values were determined.

Murine colon C26 cells = assay: Tumor Cell Proliferation Assay (ATP Lite), C26; format: cell-based; conditions: Mus musculus, 96 h, 4 days, ATPlite
Description: (§1) Assay 2: Tumor Cell Proliferation Assays (ATP Lite)
(§2) Murine colon C26 (1500 cells/well), human melanoma A375 (2000 cells/well), or human pancreatic MiaPaCa-2 cells (2000 cells/well) were plated in white, 96 well plates (Corning) in growth media (DMEM with 10% fetal bovine serum, 2 mM glutamine for C26 and MiaPaCa-2, and RPMI with 10% fetal bovine serum, 2 mM glutamine for A375) and cultured overnight at 37° C. in a humidified, 5% CO2 incubator. Inhibitors were serially diluted in 100% DMSO and subsequently added to the cells, in growth media, to reach a final concentration of 0.25% DMSO. The cells were incubated for 4 days in the presence of the test compounds and the proliferation was quantitated using the ATPlite cell proliferation kit (Packard).

[1] = tested on: human melanoma A375 cells; assay: Tumor Cell Proliferation Assay (ATP Lite), A375; format: cell-based; conditions: A-375, 96 h, 4 days, ATPlite
Description: as §1, §2

[2] = tested on: human pancreatic MiaPaCa-2 cells; assay: Tumor Cell Proliferation Assay (ATP Lite), MiaPaCa-2; format: cell-based; conditions: MIA PaCa-2, 96 h, 4 days, ATPlite, read-out: MiaPaCa2 cell proliferation IC50
Description: as §1, §2

Sequence of human MEK1 (Q02750 whole entry S218E/S222E): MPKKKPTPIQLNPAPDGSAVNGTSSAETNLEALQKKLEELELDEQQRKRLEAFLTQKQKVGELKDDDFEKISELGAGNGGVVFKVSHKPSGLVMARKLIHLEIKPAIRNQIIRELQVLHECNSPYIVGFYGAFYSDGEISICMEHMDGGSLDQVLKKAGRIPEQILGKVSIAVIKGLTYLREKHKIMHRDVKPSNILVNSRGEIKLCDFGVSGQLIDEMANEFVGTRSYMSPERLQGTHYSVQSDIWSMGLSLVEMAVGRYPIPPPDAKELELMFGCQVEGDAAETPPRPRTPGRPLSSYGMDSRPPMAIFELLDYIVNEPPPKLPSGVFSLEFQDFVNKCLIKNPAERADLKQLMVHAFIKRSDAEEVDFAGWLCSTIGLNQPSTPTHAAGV

SMILES	IC50 (human MEK1)	IC50 (Murine colon C26 cells)	IC50 [1]	IC50 [2]
O=c1[nH]nc(-c2ccncc2Nc2ccc(I)cc2F)o1 [Example 1, 5-[3-(2-Fluoro-4-iodo-phenylamino)-pyridin-4-yl]-3H-[1,3,4]oxadiazol-2-one]	≤ 3000 nM	3000 to 25000 nM	≤ 3000 nM	3000 to 25000 nM
Fc1cc(I)ccc1Nc1cnccc1-c1n[nH]c(=S)o1 [Example 3, 5-[3-(2-Fluoro-4-iodo-phenylamino)-pyridin-4-yl]-3H-[1,3,4]oxadiazole-2-thione]	≤ 3000 nM	3000 to 25000 nM	≤ 3000 nM	≤ 3000 nM
O=c1[nH]nc(-c2ccncc2Nc2ccc(I)cc2F)[nH]1 [Example 4, 5-[3-(2-Fluoro-4-iodo-phenylamino)-pyridin-4-yl]-2,4-dihydro-[1,2,4]triazol-3-one]	≤ 3000 nM	≤ 3000 nM	≤ 3000 nM	≤ 3000 nM
CSc1nnc(-c2ccncc2Nc2ccc(I)cc2F)o1 [Example 5, (2-Fluoro-4-iodo-phenyl)-[4-(5-methylsulfanyl-[1,3,4]oxadiazol-2-yl)-pyridin-3-yl]-amine]	≤ 3000 nM	≤ 3000 nM	≤ 3000 nM	≤ 3000 nM
Fc1cc(I)ccc1Nc1cnccc1-c1nnc(N2CCOCC2)o1 [Example 6, (2-Fluoro-4-iodo-phenyl)-[4-(5-morpholin-4-yl-[1,3,4]oxadiazol-2-yl)-pyridin-3-yl]-amine]	≤ 3000 nM	≤ 3000 nM	≤ 3000 nM	≤ 3000 nM
CNc1nnc(-c2ccncc2Nc2ccc(I)cc2F)s1 [Example 7, (2-Fluoro-4-iodo-phenyl)-[4-(5-methylamino-[1,3,4]thiadiazol-2-yl)-pyridin-3-yl]-amine]	≤ 3000 nM	≤ 3000 nM	≤ 3000 nM	≤ 3000 nM
Cn1c(-c2ccncc2Nc2ccc(I)cc2F)n[nH]c1=S [Example 8, 5-[3-(2-Fluoro-4-iodo-phenylamino)-pyridin-4-yl]-4-methyl-2,4-dihydro-[1,2,4]triazole-3-thione]	≤ 3000 nM	≤ 3000 nM	≤ 3000 nM	≤ 3000 nM
Fc1cc(I)ccc1Nc1cnccc1C1NNC(=S)N1CCN1CCOCC1 (stereo not drawn) [Example 9, 5-[3-(2-Fluoro-4-iodo-phenylamino)-pyridin-4-yl]-4-(2-morpholin-4-yl-ethyl)-[1,2,4]triazolidine-3-thione]	3000 to 25000 nM	≤ 3000 nM	≤ 3000 nM	≤ 3000 nM
CC1(C)OCC(CNc2nnc(-c3ccncc3Nc3ccc(I)cc3F)o2)O1 (stereo not drawn) [Example 10, (4-{5-[(2,2-Dimethyl-[1,3]dioxolan-4-ylmethyl)-amino]-[1,3,4]oxadiazol-2-yl}-pyridin-3-yl)-(2-fluoro-4-iodo-phenyl)-amine]	≤ 3000 nM	≤ 3000 nM	≤ 3000 nM	≤ 3000 nM
OCC(O)CNc1nnc(-c2ccncc2Nc2ccc(I)cc2F)o1 (stereo not drawn) [Example 11, 3-{5-[3-(2-Fluoro-4-iodo-phenylamino)-pyridin-4-yl]-[1,3,4]oxadiazol-2-ylamino}-propane-1,2-diol]	≤ 3000 nM	≤ 3000 nM	≤ 3000 nM	≤ 3000 nM
Fc1cc(I)ccc1Nc1cnccc1-c1nnc(NCCN2CCOCC2)s1 [Example 12, (2-Fluoro-4-iodo-phenyl)-{4-[5-(2-morpholin-4-yl-ethylamino)-[1,3,4]thiadiazol-2-yl]-pyridin-3-yl}-amine]	≤ 3000 nM	≤ 3000 nM	≤ 3000 nM	≤ 3000 nM
Cc1nnc(-c2ccncc2Nc2ccc(I)cc2F)o1 [Example 13, (2-Fluoro-4-iodo-phenyl)-[4-(5-methyl-[1,3,4]oxadiazol-2-yl)-pyridin-3-yl]-amine]	≤ 3000 nM	≤ 3000 nM	≤ 3000 nM	≤ 3000 nM
Nc1nnc(-c2ccncc2Nc2ccc(Br)cc2Br)o1 [Example 14, [4-(5-Amino-[1,3,4]oxadiazol-2-yl)-pyridin-3-yl]-(2,4-dibromo-phenyl)-amine]	≤ 3000 nM	≤ 3000 nM	≤ 3000 nM	≤ 3000 nM
CCOC(=O)C(=O)Nc1nnc(-c2ccncc2Nc2ccc(I)cc2F)o1 [Example 15, N-{5-[3-(2-Fluoro-4-iodo-phenylamino)-pyridin-4-yl]-[1,3,4]oxadiazol-2-yl}-oxalamic acid ethyl ester]	≤ 3000 nM	≤ 3000 nM	≤ 3000 nM	≤ 3000 nM
CNc1nnc(-c2ccncc2Nc2ccc(I)cc2F)o1 [Example 16, (2-Fluoro-4-iodo-phenyl)-[4-(5-methylamino-[1,3,4]oxadiazol-2-yl)-pyridin-3-yl]-amine]	≤ 3000 nM	≤ 3000 nM	≤ 3000 nM	≤ 3000 nM
CCOC(=O)CNC(=O)Nc1nnc(-c2ccncc2Nc2ccc(I)cc2F)o1 [Example 17, (3-{5-[3-(2-Fluoro-4-iodo-phenylamino)-pyridin-4-yl]-[1,3,4]oxadiazol-2-yl}-ureido)-acetic acid ethylester]	≤ 3000 nM	> 25000 nM	3000 to 25000 nM	3000 to 25000 nM
Fc1cc(I)ccc1Nc1cnccc1-c1nnc(NCCN2CCCCC2)o1 [Example 18, (2-Fluoro-4-iodo-phenyl)-{4-[5-(2-piperidin-1-yl-ethylamino)-[1,3,4]oxadiazol-2-yl]-pyridin-3-yl}-amine]	≤ 3000 nM	≤ 3000 nM	≤ 3000 nM	≤ 3000 nM
Fc1cc(I)ccc1Nc1cnccc1-c1nnc(NCCCN2CCOCC2)o1 [Example 19, (2-Fluoro-4-iodo-phenyl)-{4-[5-(3-morpholin-4-yl-propylamino)-[1,3,4]oxadiazol-2-yl]-pyridin-3-yl}-amine]	≤ 3000 nM	≤ 3000 nM	≤ 3000 nM	≤ 3000 nM
Fc1cc(I)ccc1Nc1cnccc1-c1nnc(NCCN2CCOCC2)o1 [Example 20, (2-Fluoro-4-iodo-phenyl)-{4-[5-(2-morpholin-4-yl-ethylamino)-[1,3,4]oxadiazol-2-yl]-pyridin-3-yl}-amine]	≤ 3000 nM	≤ 3000 nM	≤ 3000 nM	≤ 3000 nM
CC(=O)Nc1nnc(-c2ccncc2Nc2ccc(I)cc2F)o1 [Example 21, N-{5-[3-(2-Fluoro-4-iodo-phenylamino)-pyridin-4-yl]-[1,3,4]oxadiazol-2-yl}-acetamide]	≤ 3000 nM	≤ 3000 nM	≤ 3000 nM	≤ 3000 nM
CN(C)CCNc1nnc(-c2ccncc2Nc2ccc(I)cc2F)o1 [Example 22, N-{5-[3-(2-Fluoro-4-iodo-phenylamino)-pyridin-4-yl]-[1,3,4]oxadiazol-2-yl}-N′,N′-dimethyl-ethane-1,2-diamine]	≤ 3000 nM	≤ 3000 nM	≤ 3000 nM	≤ 3000 nM
Fc1cc(I)ccc1Nc1cnccc1-c1nnc(NCCN2CCCC2)o1 [Example 23, (2-Fluoro-4-iodo-phenyl)-{4-[5-(2-pyrrolidin-1-yl-ethylamino)-[1,3,4]oxadiazol-2-yl]-pyridin-3-yl}-amine]	≤ 3000 nM	≤ 3000 nM	≤ 3000 nM	≤ 3000 nM
Nc1nnc(-c2ccncc2Nc2ccc(I)cc2Cl)o1 [Example 24, [4-(5-Amino-[1,3,4]oxadiazol-2-yl)-pyridin-3-yl]-(2-chloro-4-iodo-phenyl)-amine]	≤ 3000 nM	≤ 3000 nM	≤ 3000 nM	≤ 3000 nM
C#Cc1cc(-c2nnc(N)o2)c(Nc2ccc(I)cc2F)cn1 [Example 28, [4-(5-Amino-[1,3,4]oxadiazol-2-yl)-6-ethynyl-pyridin-3-yl]-(2-fluoro-4-iodo-phenyl)-amine]	≤ 3000 nM			
CCOc1nnc(-c2ccncc2Nc2ccc(I)cc2F)[nH]1 [Example 30, [4-(5-Ethoxy-4H-[1,2,4]triazol-3-yl)-pyridin-3-yl]-(2-fluoro-4-iodo-phenyl)-amine]	≤ 3000 nM			
CCOC(=O)c1noc(-c2ccncc2Nc2ccc(I)cc2F)n1 [Example 36, 5-[3-(2-Fluoro-4-iodo-phenylamino)-pyridin-4-yl]-[1,2,4]oxadiazole-3-carboxylic acid ethyl ester]	≤ 3000 nM			
Cc1noc(C)c1-c1ccncc1Nc1ccc(I)cc1F [Example 66]	≤ 3000 nM			
